In US8017612B2, “Piperazine compound and use thereof as a HCV polymerase inhibitor” (priority 2006, dated 2011):
pIC50: −log10 of the molar value.

Legend:
[1] = target: T1, HCV polymerase (NS5B) type 1b (Hepatitis C virus genotype 1b, UniProt P26663); experiment: Assay of enzyme (HCV polymerase) inhibitory activity, type 1b enzyme; type: biochemical, HCV BK strain (type 1b); details: HCV polymerase inhibitory activity (IC50), 1b, type 1b enzyme 0.5 μg/ml, 25° C., 60 min
T1 construct: a region encoding NS5B (J Virol 1991 March, 65(3), 1105-13, 544 amino acids after deletion of 47 amino acids on the C-terminal); 6xHis (C); made in house; host or cells: Escherichia coli
Method in brief: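 NS5B from HCV BK strain (type 1b), C-terminal 47 aa deleted, C-terminal His6-tagged, E. coli-expressed, 0.5 μg/ml, with ~450 nt substrate RNA carrying the 3′ UTR (polyU, 3′X) at 5 μg/ml. Incubation 60 min at 25 °C with 50 μM ATP/GTP/CTP, 2 μM UTP plus [3H]UTP, pH 7.5 Tris.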

[2] = target: T2, HCV polymerase (NS5B) type 1a (Hepatitis C virus genotype 1a, UniProt P26664); experiment: Assay of enzyme (HCV polymerase) inhibitory activity, type 1a enzyme; type: biochemical, HCV type 1a (cloned from the blood of patients); details: HCV polymerase inhibitory activity (IC50), 1a, type 1a enzyme 1.5 μg/ml, 25° C., 60 min
T2 construct: made in house; host or cells: Escherichia coli (by the 'similar method' of the 1b enzyme)
Method in brief: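 Patient-derived type 1a NS5B (C-terminal 47-aa deletion, His-tagged, E. coli-expressed) at 1.5 μg/ml was reacted with 5 μg/ml 3′UTR-containing substrate RNA, 50 μM ATP/GTP/CTP, 2 μM UTP plus [3H]UTP, pH 7.5, 25° C for 60 min. TCA-precipitated RNA radioactivity was counted; IC50 from ± compound.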

SMILES | pIC50 [1] | pIC50 [2]
CC(C)c1ccc(S(=O)(=O)N2CCN(C(N)=O)CC2C(=O)NCc2ccc(C(F)(F)F)cc2)cc1 (stereo not drawn) [Example 350, 4-(4-isopropyl-benzenesulfonyl)-piperazine-1,3-dicarboxylic acid 1-amide 3-(4-trifluoromethyl-benzylamide)] | < 6.00 | < 6.00
CC(=O)N1CCN(S(=O)(=O)c2cc(Cl)cc(Cl)c2)C(C(=O)NCc2ccc(C(F)(F)F)cc2)C1 (stereo not drawn) [Example 351, 4-acetyl-1-(3,5-dichloro-benzenesulfonyl)-piperazine-2-carboxylic acid 4-trifluoromethyl-benzylamide] | < 6.00 | < 6.00
CC(C)c1ccc(CNC(=O)[C@H]2CN(c3nccn3C)CCN2S(=O)(=O)c2ccc(C(F)(F)F)cc2)cc1 [Example 352, (R)-4-(1-methyl-1H-imidazol-2-yl)-1-(4-trifluoromethyl-benzenesulfonyl)-piperazine-2-carboxylic acid 4-isopropyl-benzylamide] | 6.00 to 7.00 | < 6.00
CC(C)c1ccc(CNC(=O)[C@H]2CN(c3ncc[nH]3)CCN2S(=O)(=O)c2ccc(C(F)(F)F)cc2)cc1 [Example 353, (R)-4-(1H-imidazol-2-yl)-1-(4-trifluoromethyl-benzenesulfonyl)-piperazine-2-carboxylic acid 4-isopropyl-benzylamide] | 6.00 to 7.00 | 6.00 to 7.00
CNC(=O)c1sc(N2CCN(S(=O)(=O)c3ccc(OC(F)(F)F)cc3)[C@@H](C(=O)NCc3ccc(C(C)C)cc3)C2)nc1C [Example 354, (R)-4-(4-methyl-5-methylcarbamoyl-thiazol-2-yl)-1-(4-trifluoromethoxy-benzenesulfonyl)-piperazine-2-carboxylic acid 4-isopropyl-benzylamide] | > 7.00 | > 7.00
Cc1nc(N2CCN(S(=O)(=O)c3ccc(OC(F)(F)F)cc3)[C@@H](C(=O)NCc3ccc(C(C)C)cc3)C2)sc1C(=O)N(C)C [Example 355, (R)-4-(5-dimethylcarbamoyl-4-methyl-thiazol-2-yl)-1-(4-trifluoromethoxy-benzenesulfonyl)-piperazine-2-carboxylic acid 4-isopropyl-benzylamide] | > 7.00 | > 7.00
Cc1cc(C2CC2)ccc1CNC(=O)[C@H]1CN(c2nc(C)c(C(=O)O)s2)CCN1S(=O)(=O)c1ccc(OC(F)(F)F)cc1 [Example 356, 2-[(R)-3-(4-cyclopropyl-2-methyl-benzylcarbamoyl)-4-(4-trifluoromethoxy-benzenesulfonyl)-piperazin-1-yl]-4-methyl-thiazole-5-carboxylic acid] | > 7.00 | > 7.00
CC(C)c1ccc(CNC(=O)[C@H]2CN(c3ncc(C(=O)O)c(O)n3)CCN2S(=O)(=O)c2ccc(C(F)(F)F)cc2)cc1 [Example 357, 4-hydroxy-2-[(R)-3-(4-isopropyl-benzylcarbamoyl)-4-(4-trifluoromethyl-benzenesulfonyl)-piperazin-1-yl]-pyrimidine-5-carboxylic acid] | 6.00 to 7.00 | < 6.00
Cc1nc(N2CCN(S(=O)(=O)c3ccc(OC(F)(F)F)cc3)[C@@H](C(=O)NCc3ccc(C(C)C)cc3)C2)sc1C(=O)NCC(=O)OC(C)(C)C [Example 358, ({2-[(R)-3-(4-isopropyl-benzylcarbamoyl)-4-(4-trifluoromethoxy-benzenesulfonyl)-piperazin-1-yl]-4-methyl-thiazole-5-carbonyl}-amino)-acetic acid tert-butyl ester] | > 7.00 | > 7.00
Cc1nc(N2CCN(S(=O)(=O)c3ccc(OC(F)(F)F)cc3)[C@@H](C(=O)NCc3ccc(C(C)C)cc3)C2)sc1C(=O)NCCC(=O)OC(C)(C)C [Example 359, 3-({2-[(R)-3-(4-isopropyl-benzylcarbamoyl)-4-(4-trifluoromethoxy-benzenesulfonyl)-piperazin-1-yl]-4-methyl-thiazole-5-carbonyl}-amino)-propionic acid tert-butyl ester] | > 7.00 | > 7.00
Cc1nc(N2CCN(S(=O)(=O)c3ccc(OC(F)(F)F)cc3)[C@@H](C(=O)NCc3ccc(C(C)C)cc3)C2)sc1C(=O)NCC(=O)O [Example 360, ({2-[(R)-3-(4-isopropyl-benzylcarbamoyl)-4-(4-trifluoromethoxy-benzenesulfonyl)-piperazin-1-yl]-4-methyl-thiazole-5-carbonyl}-amino)-acetic acid] | > 7.00 | > 7.00
Cc1nc(N2CCN(S(=O)(=O)c3ccc(OC(F)(F)F)cc3)[C@@H](C(=O)NCc3ccc(C(C)C)cc3)C2)sc1C(=O)NCCC(=O)O [Example 361, 3-({2-[(R)-3-(4-isopropyl-benzylcarbamoyl)-4-(4-trifluoromethoxy-benzenesulfonyl)-piperazin-1-yl]-4-methyl-thiazole-5-carbonyl}-amino)-propionic acid] | > 7.00 | > 7.00
CC(C)c1ccc(CNC(=O)[C@H]2CN(c3nc([N+](=O)[O-])n[nH]3)CCN2S(=O)(=O)c2ccc(C(F)(F)F)cc2)cc1 [Example 362, (R)-4-(5-nitro-2H-[1,2,4]triazol-3-yl)-1-(4-trifluoromethyl-benzenesulfonyl)-piperazine-2-carboxylic acid 4-isopropyl-benzylamide] | 6.00 to 7.00 | < 6.00
CCCc1ccc(CNC(=O)[C@H]2CN(c3nc(CC)c(C(=O)O)s3)CCN2S(=O)(=O)c2ccc(OC(F)(F)F)cc2)c(C)c1 [Example 363, 4-ethyl-2-[(R)-3-(2-methyl-4-propyl-benzylcarbamoyl)-4-(4-trifluoromethoxy-benzenesulfonyl)-piperazin-1-yl]-thiazole-5-carboxylic acid] | > 7.00 | > 7.00
Cc1cc(C(C)C)ccc1CNC(=O)[C@H]1CN(c2nc(C)c(C(=O)O)s2)CCN1S(=O)(=O)c1ccc(OC(F)(F)F)cc1 [Example 364, 2-[(R)-3-(4-isopropyl-2-methyl-benzylcarbamoyl)-4-(4-trifluoromethoxy-benzenesulfonyl)-piperazin-1-yl]-4-methyl-thiazole-5-carboxylic acid] | > 7.00 | > 7.00
Cc1nc(N2CCN(S(=O)(=O)c3ccc(OC(F)(F)F)cc3)[C@@H](C(=O)NCc3ccc(OC(F)(F)F)cc3)C2)sc1C(=O)O [Example 365, 4-methyl-2-[(R)-4-(4-trifluoromethoxy-benzenesulfonyl)-3-(4-trifluoromethoxy-benzylcarbamoyl)-piperazin-1-yl]-thiazole-5-carboxylic acid] | > 7.00 | > 7.00
CCc1ccc(CNC(=O)[C@H]2CN(c3nc(C)c(C(=O)O)s3)CCN2S(=O)(=O)c2ccc(OC(F)(F)F)cc2)cc1 [Example 366, 2-[(R)-3-(4-ethyl-benzylcarbamoyl)-4-(4-trifluoromethoxy-benzenesulfonyl)-piperazin-1-yl]-4-methyl-thiazole-5-carboxylic acid] | > 7.00 | > 7.00
Cc1nc(N2CCN(S(=O)(=O)c3ccc(OC(F)(F)F)cc3)[C@@H](C(=O)NCc3ccc(C(C)(C)C)cc3)C2)sc1C(=O)O [Example 367, 2-[(R)-3-(4-tert-butyl-benzylcarbamoyl)-4-(4-trifluoromethoxy-benzenesulfonyl)-piperazin-1-yl]-4-methyl-thiazole-5-carboxylic acid] | > 7.00 | > 7.00
